# Counter-ions that a name gives are not always drawn.
# What was measured:
# [1] = test system: rat pup isolation-induced ultrasonic vocalization; assay: rat pup isolation-induced ultrasonic vocalization test; format: in vivo
# Source text: The compounds of this invention are useful as antagonists or partial agonists for the treatment of CNS and ocular disorders. […] A compound of this invention has also been assessed in an in vivo model, the rat pup isolation-induced ultrasonic vocalization test. This animal model has proven to be a sensitive and reliable method for detecting anxiolytics and antidepressants across a broad spectrum of pharmacological classes such as benzodiazepines, serotonin reuptake inhibitors, serotonin agonists and NMDA antagonists (Gardner, C.; Drug Devel. Res. 1985, 5,185-193 and Winslow, J.; Insel, T.; Psychopharmacology 1991, 105, 513-520).
melting point [°C],locomotor activity at doses suppressing ultrasonic vocalization [1],SMILES,amount of compound dosed which reduced the rat pup ultrasonic vocalization by 50% (ID50) [1] [mg/kg],supression of rat pup ultrasonic vocalization [1]
207 to 208,,"C[C@H](Nc1nc(N)nc(NCCOc2ccccc2)n1)c1ccccc1 (as salt: TFA) [Compound 41, N^2-[2-(Phenoxy)ethyl]-N^4-[(1S)-1-phenylethyl]-1,3,5-triazine-2,4,6-triamine]",,
161,,"C[C@H](Nc1nc(N)nc(NCCc2ccccn2)n1)c1ccc(F)cc1 (as salt: TFA) [Example 18, N^2-[(1S)-1-(4-Fluorophenyl)ethyl]-N^4-[2-(2-pyridinyl)ethyl]-1,3,5-triazine-2,4,6-triamine]",,
,did not suppress locomotor activity,"Cc1ccc([C@H](C)Nc2nc(N)nc(NCCOc3ccccc3)n2)cc1 [N^2-[(1S)-1-(4-Methylphenyl)ethyl]-N^4-(2-phenoxyethyl)-1,3,5-triazine-2,4,6-triamine]",23.8,dose dependent and significant supression of rat pup ultrasonic vocalization

# From patent US6630469B2, “5-HT7 receptor antagonists” (Bristol-Myers Squibb Company, priority 2000, dated 2003)
